Reference: patent US20250034125A1, “COMPOUNDS AND USES THEREOF” (JANSSEN PHARMACEUTICA NV, priority 2019, published 2025)
Where two headings read alike, the source gives them in different places.

Legend:
SCD5 = target: T1, SCD5 (Homo sapiens, UniProt Q86SK9); assay: Growth inhibition of yeast (ole1Δ) expressing human SCD5 as the sole desaturase; assay type: cell-based
T1 construct: host or cells: Saccharomyces cerevisiae ole1Δ strain (W303 pdr1Δ pdr3Δ background), plasmid pRS316, TDH3 promoter
T1 sequence (Q86SK9 1-330): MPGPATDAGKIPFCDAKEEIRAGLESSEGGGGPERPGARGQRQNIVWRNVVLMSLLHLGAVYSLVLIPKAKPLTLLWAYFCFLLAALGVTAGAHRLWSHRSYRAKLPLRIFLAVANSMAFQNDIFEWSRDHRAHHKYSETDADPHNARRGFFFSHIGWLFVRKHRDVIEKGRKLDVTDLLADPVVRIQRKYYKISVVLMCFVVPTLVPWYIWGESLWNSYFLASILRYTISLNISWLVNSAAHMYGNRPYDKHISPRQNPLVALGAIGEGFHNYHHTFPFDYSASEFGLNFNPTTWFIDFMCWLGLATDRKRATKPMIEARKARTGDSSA

SCD1 = target: T2, SCD1 (Homo sapiens, UniProt O00767); assay: Growth inhibition of yeast (ole1Δ) expressing human SCD1 as the sole desaturase; assay type: cell-based
T2 construct: host or cells: Saccharomyces cerevisiae ole1Δ strain (W303 pdr1Δ pdr3Δ background), plasmid pRS316, TDH3 promoter
T2 sequence (O00767 1-359): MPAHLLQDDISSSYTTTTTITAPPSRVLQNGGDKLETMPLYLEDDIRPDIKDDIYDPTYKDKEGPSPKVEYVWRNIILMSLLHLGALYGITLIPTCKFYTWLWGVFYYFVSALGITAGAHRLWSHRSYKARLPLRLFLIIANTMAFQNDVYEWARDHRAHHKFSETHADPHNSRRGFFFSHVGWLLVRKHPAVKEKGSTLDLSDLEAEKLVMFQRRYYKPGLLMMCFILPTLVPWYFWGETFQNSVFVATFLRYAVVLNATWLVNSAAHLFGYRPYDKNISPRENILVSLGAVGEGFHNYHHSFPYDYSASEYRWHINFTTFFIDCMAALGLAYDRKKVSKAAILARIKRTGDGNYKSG

[1] = yeast strain with SCD5 plasmid, OD600 growth read at 40 h, read-out: SCD5 IC50
[2] = yeast strain with SCD1 plasmid, OD600 growth read at 40 h, read-out: SCD1 IC50

Row | SMILES | IC50 (SCD5; [1]) [nM] | IC50 (SCD1; [2]) [nM] | IC50 (SCD5) [nM] | IC50 (SCD1) [nM]
1 | Cn1nc(NC(=O)N2CCC(Oc3ccccc3)CC2)ccc1=O [Compound 67, N-(1-methyl-6-oxo-1,6-dihydropyridazin-3-yl)-4-phenoxypiperidine-1-carboxamide] | 2100 | 3980 | – | –
2 | Cn1nc(NC(=O)N2CCC(Oc3cccc(Cl)c3)CC2)ccc1=O [Compound 68, 4-(3-chlorophenoxy)-N-(1-methyl-6-oxo-1,6-dihydropyridazin-3-yl)piperidine-1-carboxamide] | 60 | 260 | – | –
3 | Cn1nc(NC(=O)N2CCC(Oc3ccccc3Cl)CC2)ccc1=O [Compound 69] | 150 | 420 | – | –
4 | Cn1nc(NC(=O)N2CCC(Oc3ccc(Cl)cc3)CC2)ccc1=O [Compound 71] | 4960 | 13300 | – | –
5 | Cc1ccccc1OC1CCN(C(=O)Nc2ccc(=O)n(C)n2)CC1 [Compound 72, N-(1-methyl-6-oxo-1,6-dihydropyridazin-3-yl)-4-(o-tolyloxy) piperidine-1-carboxamide] | 280 | 430 | – | –
6 | COc1ccccc1OC1CCN(C(=O)Nc2ccc(=O)n(C)n2)CC1 [Compound 73, 4-(2-methoxyphenoxy)-N-(1-methyl-6-oxo-1,6-dihydropyridazin-3-yl)piperidine-1-carboxamide] | 12500 | 31900 | – | –
7 | Cn1nc(NC(=O)N2CCC(Oc3cccc(C(F)(F)F)c3)CC2)ccc1=O [Compound 74, N-(1-methyl-6-oxo-1,6-dihydropyridazin-3-yl)-4-(3-(trifluoromethyl)phenoxy) piperidine-1-carboxamide] | 40 | 20 | – | –
8 | Cn1nc(NC(=O)N2CCC(Oc3ccccc3C(F)(F)F)CC2)ccc1=O [Compound 75, N-(1-methyl-6-oxo-1,6-dihydropyridazin-3-yl)-4-(2-(trifluoromethyl)phenoxy) piperidine-1-carboxamide] | 70 | 220 | – | –
9 | Cn1nc(NC(=O)N2CCC(Oc3ccc(C(F)(F)F)cc3)CC2)ccc1=O [Compound 76, N-(1-methyl-6-oxo-1,6-dihydropyridazin-3-yl)-4-(4-(trifluoromethyl)phenoxy) piperidine-1-carboxamide] | 4800 | 9770 | – | –
10 | Cn1nc(NC(=O)N2CCC(Oc3cc(F)cc(F)c3)CC2)ccc1=O [Compound 79, 4-(3,5-difluorophenoxy)-N-(1-methyl-6-oxo-1,6-dihydropyridazin-3-yl)piperidine-1-carboxamide] | 200 | 480 | – | –
11 | Cn1nc(NC(=O)N2CCC(Oc3ccc(F)c(F)c3)CC2)ccc1=O [Compound 80] | 1190 | 1980 | – | –
12 | Cn1nc(NC(=O)N2CCC(Oc3cccc(Cl)c3Cl)CC2)ccc1=O [Compound 81, 4-(2,3-dichlorophenoxy)-N-(1-methyl-6-oxo-1,6-dihydropyridazin-3-yl)piperidine-1-carboxamide] | 150 | 60 | – | –
13 | Cn1nc(NC(=O)N2CCC(Oc3cc(F)ccc3Cl)CC2)ccc1=O [Compound 82, 4-(2-chloro-5-fluorophenoxy)-N-(1-methyl-6-oxo-1,6-dihydropyridazin-3-yl)piperidine-1-carboxamide] | 20 | 50 | – | –
14 | Cn1nc(NC(=O)N2CCC(Oc3ccc(F)cc3Cl)CC2)ccc1=O [Compound 83, 4-(2-chloro-4-fluorophenoxy)-N-(1-methyl-6-oxo-1,6-dihydropyridazin-3-yl)piperidine-1-carboxamide] | 6210 | 4360 | – | –
15 | Cn1nc(NC(=O)N2CCC(Oc3cccc(F)c3C(F)(F)F)CC2)ccc1=O [Compound 84] | 170 | 430 | – | –
16 | Cn1nc(NC(=O)N2CCC(Oc3ccc(F)cc3C(F)(F)F)CC2)ccc1=O [Compound 85] | 50 | 80 | – | –
17 | Cn1nc(NC(=O)N2CCC(Oc3cc(F)ccc3C(F)(F)F)CC2)ccc1=O [Compound 86, 4-(5-fluoro-2-(trifluoromethyl)phenoxy)-N-(1-methyl-6-oxo-1,6-dihydropyridazin-3-yl)piperidine-1-carboxamide] | 10 | 10 | – | –
18 | Cn1nc(NC(=O)N2CCC(Oc3cccc(C#N)c3Cl)CC2)ccc1=O [Compound 87, 4-(2-chloro-3-cyanophenoxy)-N-(1-methyl-6-oxo-1,6-dihydropyridazin-3-yl)piperidine-1-carboxamide] | > 45000 | > 45000 | – | –
19 | Cn1nc(NC(=O)N2CCC(Oc3ccc(C(F)(F)F)c(F)c3)CC2)ccc1=O [Compound 88, 4-(3-fluoro-4-(trifluoromethyl)phenoxy)-N-(1-methyl-6-oxo-1,6-dihydropyridazin-3-yl)piperidine-1-carboxamide] | 30 | 70 | – | –
20 | Cn1nc(NC(=O)N2CCC(Oc3cc(F)c(F)c(Cl)c3)CC2)ccc1=O [Compound 89, 4-(3-chloro-4,5-difluorophenoxy)-N-(1-methyl-6-oxo-1,6-dihydropyridazin-3-yl)piperidine-1-carboxamide] | 60 | 260 | – | –
21 | Cn1nc(NC(=O)N2CCC(Oc3cc(F)c(F)c(C#N)c3)CC2)ccc1=O [Compound 90, 4-(3-cyano-4,5-difluorophenoxy)-N-(1-methyl-6-oxo-1,6-dihydropyridazin-3-yl)piperidine-1-carboxamide] | 7180 | 10300 | – | –
22 | Cn1nc(NC(=O)N2CCC(Nc3ccccc3C(F)(F)F)CC2)ccc1=O [Compound 92, N-(1-methyl-6-oxo-1,6-dihydropyridazin-3-yl)-4-(2-(trifluoromethyl)phenylamino) piperidine-1-carboxamide] | 390 | 2400 | – | –
23 | Cn1nc(NC(=O)N2CCC(Nc3cc(F)cc(Cl)c3)CC2)ccc1=O [Compound 93, 4-((3-chloro-5-fluorophenyl)amino)-N-(1-methyl-6-oxo-1,6-dihydropyridazin-3-yl)piperidine-1-carboxamide] | – | – | 15000 | > 45000
24 | Cn1nc(NC(=O)N2CCC(Nc3cc(F)cc(F)c3)CC2)ccc1=O [Compound 94, 4-((3,5-difluorophenyl)amino)-N-(1-methyl-6-oxo-1,6-dihydropyridazin-3-yl)piperidine-1-carboxamide] | – | – | > 45000 | > 45000
25 | CN(c1cc(F)cc(F)c1)C1CCN(C(=O)Nc2ccc(=O)n(C)n2)CC1 [Compound 95] | 12000 | > 45000 | – | –
26 | Cn1nc(NC(=O)N2CCC(OCc3cccc(F)c3)CC2)ccc1=O [Compound 96, 4-(3-fluorobenzyloxy)-N-(1-methyl-6-oxo-1,6-dihydropyridazin-3-yl)piperidine-1-carboxamide] | 26400 | > 45000 | – | –
27 | Cn1nc(NC(=O)N2CCC(OCc3ccccc3F)CC2)ccc1=O [Compound 97, 4-(2-fluorobenzyloxy)-N-(1-methyl-6-oxo-1,6-dihydropyridazin-3-yl)piperidine-1-carboxamide] | 26100 | > 45000 | – | –
28 | Cn1nc(NC(=O)N2CCC(COc3ccccc3Cl)CC2)ccc1=O [Compound 98, 4-((2-chlorophenoxy)methyl)-N-(1-methyl-6-oxo-1,6-dihydropyridazin-3-yl)piperidine-1-carboxamide] | 1350 | 5180 | – | –
29 | Cn1nc(NC(=O)N2CCC(COc3ccccc3F)CC2)ccc1=O [Compound 99, 4-((2-fluorophenoxy)methyl)-N-(1-methyl-6-oxo-1,6-dihydropyridazin-3-yl)piperidine-1-carboxamide] | 6870 | 32500 | – | –
